IC50 data for 22 compounds are collected here from ChEMBL document CHEMBL3414566, “Synthesis, docking and ADMET studies of novel chalcone triazoles for anti-cancer and anti-diabetic activity” (Eur J Med Chem, 2015).

Experiment [1] in a line: Inhibition of rat intestinal alpha-glucosidase using nitrophenyl-alpha-D-glucopyranoside by spectrophotometrically.
Experiment [2] concerns MCF7. The experiment in a line: Anticancer activity against human MCF7 cells by MTT assay. The class given is functional, cell-based. In general terms: Formazan colour is commonly taken as a measure of viable cells.
Experiment [3] relates to DU-145. The experiment in a line: Anticancer activity against human DU145 cells by MTT assay. The class given is functional, cell-based.
The nature of experiment [4]: Anticancer activity against human IMR32 cells by MTT assay. Format: functional, cell-based, IMR-32.
Experiment [5] has as its system A549. The experiment in a line: Anticancer activity against human A549 cells by MTT assay. The class given is functional, cell-based.
Experiment [6] deals with HepG2. Put plainly: Anticancer activity against human HepG2 cells by MTT assay. Format: functional, cell-based.
The mark [7] stands for this setting: Homo sapiens, A549, read-out: IC50.
Where [8] appears, read: Homo sapiens, HepG2, read-out: IC50.
The mark [9] stands for this setting: Homo sapiens, MCF7, read-out: IC50.
Setting [10] is: Homo sapiens, IMR-32, read-out: IC50.
Setting [11] is: Homo sapiens, DU-145, read-out: IC50.

As a reminder, the IC50 is the concentration that gives 50% inhibition.

Regarding `CCc1ccccc1-n1cc(COc2ccc(/C=C/C(=O)c3ccc4c(c3O)CCC(C)(C)O4)cc2)nn1`, the IC50 in experiment [1] (read-out: IC50) is 67.8 µM; in experiment [2] (mcf7) it was “Not Active”; in experiment [3] (du-145), “Not Active”; in experiment [4] (imr-32), “Not Active”; in experiment [5] (setting [7]), 112 µM; in experiment [6] (setting [8]) it was 67.8 µM.
Turning to `Cc1ccc(-n2cc(COc3ccc(/C=C/C(=O)c4ccc5c(c4O)CCC(C)(C)O5)cc3)nn2)cc1Br`, the IC50 result in experiment [1] is “Not Active”; in experiment [2] (mcf7), “Not Active”; in experiment [3] (du-145) it was “Not Active”; in experiment [4] (imr-32), “Not Active”; in experiment [5] (a549) it was “Not Active”; in experiment [6] (setting [8]) it was 110 µM.
Regarding `CC(=O)c1ccc(-n2cc(COc3ccc(/C=C/C(=O)c4cc5c(cc4O)OC(C)(C)CC5)cc3)nn2)cc1`, the IC50 result is “Not Active” in experiment [1]; 182 µM in experiment [2] (setting [9]); “Not Active” in experiment [3] (du-145); “Not Active” in experiment [4] (imr-32); 66.3 µM in experiment [5] (setting [7]); “Not Active” in experiment [6] (hepg2).
In the case of `CC1(C)CCc2cc(C(=O)/C=C/c3ccc(OCc4cn(-c5ccc(Br)cc5)nn4)cc3)c(O)cc2O1`, the IC50 result in experiment [1] is “Not Active”; in experiment [2] (mcf7), “Not Active”; in experiment [3] (du-145) it was “Not Active”; in experiment [4] (setting [10]), 69.4 µM; in experiment [5] (setting [7]), 80 µM; in experiment [6] (hepg2) it was “Not Active”.
Consider `C[C@H]1O[C@H](O[C@H]2[C@H](O)[C@@H](O)[C@@H](O[C@H]3[C@H](O)[C@@H](O)C(O)O[C@@H]3CO)O[C@@H]2CO)[C@H](O)[C@@H](O)[C@@H]1N[C@H]1C=C(CO)[C@@H](O)[C@H](O)[C@H]1O` (stereo partly specified) [ACARBOSE], for which the IC50 in experiment [1] (read-out: IC50) is 23.9 µM; in experiment [2] (mcf7), “Not Active”; in experiment [3] (du-145), “Not Active”; in experiment [4] (imr-32), “Not Active”; in experiment [5] (a549), “Not Active”; in experiment [6] (hepg2) it was “Not Active”.
Consider `COc1ccc(-n2cc(COc3ccc(/C=C/C(=O)c4cc5c(cc4O)OC(C)(C)CC5)cc3)nn2)c([N+](=O)[O-])c1`, for which the IC50 result is “Not Active” in experiment [1]; “Not Active” in experiment [2] (mcf7); “Not Active” in experiment [3] (du-145); “Not Active” in experiment [4] (imr-32); 99.5 µM in experiment [5] (setting [7]); “Not Active” in experiment [6] (hepg2).
As for `CC1(C)CCc2c(ccc(C(=O)/C=C/c3ccc(OCc4cn(Cc5ccc([N+](=O)[O-])cc5)nn4)cc3)c2O)O1`, the IC50 entry in experiment [1] is “Not Active”; in experiment [2] (setting [9]), 17.1 µM; in experiment [3] (setting [11]), 29.9 µM; in experiment [4] (setting [10]) it was 17.3 µM; in experiment [5] (setting [7]), 69.9 µM; in experiment [6] (setting [8]), 69.9 µM.
Turning to `CC1(C)CCc2c(ccc(C(=O)/C=C/c3ccc(OCc4cn(-c5ccc(Br)cc5)nn4)cc3)c2O)O1`, the IC50 entry was “Not Active” in experiment [1]; “Not Active” in experiment [2] (mcf7); “Not Active” in experiment [3] (du-145); 117 µM in experiment [4] (setting [10]); 129 µM in experiment [5] (setting [7]); 136 µM in experiment [6] (setting [8]).
As for `COc1cccc2c1C(=O)c1c(O)c3c(c(O)c1C2=O)C[C@@](O)(C(=O)CO)C[C@@H]3O[C@H]1C[C@H](N)[C@H](O)[C@H](C)O1` [DOXORUBICIN], the IC50 entry in experiment [1] is “Not Active”; in experiment [3] (setting [11]), 17.7 µM; in experiment [4] (setting [10]), 44.4 µM; in experiment [5] (setting [7]), 69.3 µM; in experiment [6] (setting [8]), 1.05 µM.
As for `Cc1c(-n2cc(COc3ccc(/C=C/C(=O)c4ccc5c(c4O)CCC(C)(C)O5)cc3)nn2)cccc1[N+](=O)[O-]`, the IC50 entry is “Not Active” in experiment [1]; 145 µM in experiment [2] (setting [9]); “Not Active” in experiment [3] (du-145); 73.5 µM in experiment [4] (setting [10]); “Not Active” in experiment [5] (a549); 115 µM in experiment [6] (setting [8]).
Consider `COc1ccc(-n2cc(COc3ccc(/C=C/C(=O)c4ccc5c(c4O)CCC(C)(C)O5)cc3)nn2)c([N+](=O)[O-])c1`, for which the IC50 result in experiment [1] is “Not Active”; in experiment [2] (setting [9]) it was 73.1 µM; in experiment [3] (du-145), “Not Active”; in experiment [4] (setting [10]), 132 µM; in experiment [5] (a549), “Not Active”; in experiment [6] (setting [8]), 120 µM.
For `CC(=O)c1ccc(-n2cc(COc3ccc(/C=C/C(=O)c4ccc5c(c4O)CCC(C)(C)O5)cc3)nn2)cc1`, the IC50 result in experiment [1] is “Not Active”; in experiment [2] (setting [9]), 171 µM; in experiment [3] (du-145) it was “Not Active”; in experiment [4] (setting [10]), 89.5 µM; in experiment [5] (setting [7]), 149 µM; in experiment [6] (setting [8]), 91.4 µM.
For `CCCCCn1cc(COc2ccc(/C=C/C(=O)c3ccc4c(c3O)CCC(C)(C)O4)cc2)nn1`, the IC50 in experiment [1] (read-out: IC50) was 102 µM; in experiment [2] (setting [9]), 191 µM; in experiment [3] (du-145), “Not Active”; in experiment [4] (imr-32), “Not Active”; in experiment [5] (setting [7]), 48.6 µM; in experiment [6] (setting [8]), 9.82 µM.
On to `CCCCCCCCn1cc(COc2ccc(/C=C/C(=O)c3ccc4c(c3O)CCC(C)(C)O4)cc2)nn1`, for which the IC50 result was “Not Active” in experiment [1]; “Not Active” in experiment [2] (mcf7); “Not Active” in experiment [3] (du-145); “Not Active” in experiment [4] (imr-32); “Not Active” in experiment [5] (a549); 74.1 µM in experiment [6] (setting [8]).
Take `CCc1ccccc1-n1cc(COc2ccc(/C=C/C(=O)c3cc4c(cc3O)OC(C)(C)CC4)cc2)nn1`: the IC50 entry is “Not Active” in experiment [1]; “Not Active” in experiment [2] (mcf7); “Not Active” in experiment [3] (du-145); “Not Active” in experiment [4] (imr-32); 137 µM in experiment [5] (setting [7]); 115 µM in experiment [6] (setting [8]).
Consider `CC1(C)CCc2cc(C(=O)/C=C/c3ccc(OCc4cn(-c5ccc(Cl)cc5)nn4)cc3)c(O)cc2O1`, for which the IC50 result in experiment [1] is “Not Active”; in experiment [2] (mcf7), “Not Active”; in experiment [3] (du-145), “Not Active”; in experiment [4] (setting [10]), 92.1 µM; in experiment [5] (setting [7]) it was 75.5 µM; in experiment [6] (hepg2), “Not Active”.
For the compound `CC1(C)CCc2c(ccc(C(=O)/C=C/c3ccc(OCc4cn(-c5ccc(Cl)cc5)nn4)cc3)c2O)O1`, the IC50 in experiment [1] (read-out: IC50) was 128 µM; in experiment [2] (mcf7) it was “Not Active”; in experiment [3] (du-145) it was “Not Active”; in experiment [4] (imr-32) it was “Not Active”; in experiment [5] (a549), “Not Active”; in experiment [6] (setting [8]) it was 102 µM.
`CCCCCCCCn1cc(COc2ccc(/C=C/C(=O)c3cc4c(cc3O)OC(C)(C)CC4)cc2)nn1`: the IC50 result in experiment [1] was “Not Active”; in experiment [2] (mcf7) it was “Not Active”; in experiment [3] (du-145), “Not Active”; in experiment [4] (setting [10]), 7.09 µM; in experiment [5] (setting [7]), 50.8 µM; in experiment [6] (setting [8]), 127 µM.
As to `Cc1ccc(-n2cc(COc3ccc(/C=C/C(=O)c4cc5c(cc4O)OC(C)(C)CC5)cc3)nn2)cc1Br`, the IC50 result in experiment [1] is “Not Active”; in experiment [2] (mcf7) it was “Not Active”; in experiment [3] (du-145) it was “Not Active”; in experiment [4] (imr-32), “Not Active”; in experiment [5] (setting [7]), 125 µM; in experiment [6] (setting [8]), 117 µM.
For `CC1(C)CCc2cc(C(=O)/C=C/c3ccc(OCc4cn(Cc5ccc([N+](=O)[O-])cc5)nn4)cc3)c(O)cc2O1`, the IC50 entry in experiment [1] was “Not Active”; in experiment [2] (mcf7), “Not Active”; in experiment [3] (du-145) it was “Not Active”; in experiment [4] (setting [10]), 108 µM; in experiment [5] (setting [7]), 35.8 µM; in experiment [6] (setting [8]) it was 109 µM.
As for `CCCCCn1cc(COc2ccc(/C=C/C(=O)c3cc4c(cc3O)OC(C)(C)CC4)cc2)nn1`, the IC50 in experiment [1] (read-out: IC50) is 74.9 µM; in experiment [2] (mcf7) it was “Not Active”; in experiment [3] (du-145) it was “Not Active”; in experiment [4] (imr-32), “Not Active”; in experiment [5] (setting [7]), 91.3 µM; in experiment [6] (setting [8]) it was 95.8 µM.
Regarding `Cc1c(-n2cc(COc3ccc(/C=C/C(=O)c4cc5c(cc4O)OC(C)(C)CC5)cc3)nn2)cccc1[N+](=O)[O-]`, the IC50 result in experiment [1] was “Not Active”; in experiment [2] (setting [9]), 176 µM; in experiment [3] (du-145), “Not Active”; in experiment [4] (imr-32), “Not Active”; in experiment [5] (setting [7]), 65.9 µM; in experiment [6] (setting [8]), 109 µM.
